# According to patent US20110166132A1, “Gamma Secretase Modulators” (Amgen Inc., priority 2007, published 2011):
# Molecular target: T1, gamma secretase (Homo sapiens, UniProt P49768)
# T1 construct: HEK293 cells stably expressing full length Amyloid Precursor Protein (APP); endogenous in cells; host or cells: HEK 293 cells stably expressing full length APP
# Test: GSM cell-based assay: Aβ 42 inhibition or reduction in HEK 293 cells over-expressing APP (sandwich ELISA)
# Details: approximate IC50; HEK293 cells stably expressing full length APP, 24 hours incubation, 10-point dose response starting at 10 μM
# Text: GSM cell-based assays were designed to measure the modulation of Aβ 42 from HEK 293 cells over-expressing APP.
# Three simultaneous cell-based assays, namely Aβ 42 inhibition or reduction, Aβ 40 inhibition or reduction and a measurement of cell viability of the cells from which the Aβ 42/40 readout was obtained, together gave an interpretation of gamma secretase modulation (GSM). The assays measure Aβ 42 and Ab 40 from conditioned medium of test compound treated HEK 293 cells.
# HEK293 cells stably expressing full length Amyloid Precursor Protein (APP) were plated at a density of 100K cells/well in 96 well plates (Costar). The cells were cultivated for 6 hours at 37° C. and 5% CO2 in DMEM supplemented with 10% FBS. The test compounds were then added to cells in 10-point dose response concentrations with the starting concentration being 10 μM. The compounds were diluted from stock solutions in DMSO and the final DMSO concentration of the test compounds on cells was 0.1%. After 24 hours of incubation with the test compounds the supernatant conditioned media was collected and the Aβ 42, Aβ 40 levels were determined using a sandwich ELISA. A cell viability test (CellTiter-Blue Cell Viability assay, Promega) on the cells from which the conditioned medium was harvested for Aβ 42 or Aβ 40 readouts gave an indication of cell survivability as a possible reason for false positive Aβ 42 or 40 reduction or inhibition readout. The IC50 of the compound (for either Aβ 42 or Aβ 40) was calculated from the percent of control or percent inhibition of Aβ 42 or Aβ 40 as a function of the concentration of the test compound.
# The sandwich ELISA to detect Aβ 42 or Aβ 40 was performed in 96 well microtiter plates, which were pre-treated with goat anti-rabbit IgG (Pierce). The capture and detecting antibody pair that were used to detect Aβ 42 and Aβ 40 from cell supernatants were rabbit monoclonal Antibody 42 (RabMAb 42) and affinity purified polyclonal Antibody 40 pAB40 (Biosource) as capture antibodies and biotinylated 6E10 (Signet Labs Inc.) as detection antibody. The optimal concentration for RabMAb 42 was 1 μg/ml in Superblock/TBS (Pierce) that was supplemented with 0.05% Tween 20 (Sigma). The optimal concentration for the pAb40 antibody was 3 μg/ml in Superblock/TBS (Pierce) that was supplemented with 0.05% Tween 20 (Sigma). Optimal concentration for the detection antibody 6E10-biotinylated was 0.5 μg/ml in Superblock/TBS (Pierce) that had been supplemented with 2% normal goat serum and 2% normal mouse serum.
# Cellular supernatants were incubated with the capture antibody for 16-20 hours at 4° C., followed by 3 wash steps in TBS-tween (0.05%). The detecting antibody incubation was for 3 hours at 4° C., again followed by the wash steps as described previously. The final readout of the ELISA is Time-Resolved Fluorescence (counts per minute) using Delfia reagents Streptavidin-Europium and Enhancement solutions (Perkin Elmer) and the EnVision Multilabel plate reader (Perkin Elmer).
row,IC50 [µM],Compound
1,0.883,"Cc1cc(-c2ccc(NC(=O)Cc3cccc4ccccc34)cc2)ccn1 [Cpd 15, N-(4-(2-methyl-4-pyridinyl)phenyl)-2-(1-naphthalenyl)acetamide]"
2,0.827,Cc1cc(-c2ccc(NC(=O)C(C)c3cccc(-c4csc(N5CCOCC5)n4)c3)cc2)ccn1 (centres unmarked) [Cpd 183]
3,1.05,"CCC(C(=O)Nc1ccc(-c2ccnc(C)c2)cc1)c1cccc(C)c1 (centres unmarked) [Cpd 200, 2-(3-methylphenyl)-N-(4-(2-methyl-4-pyridinyl)phenyl)butanamide]"
4,0.116,"Cc1cc(-c2ccc(NC(=O)C(C)c3cccc(-c4ccc(N(C)C)cc4)c3)cc2)ccn1 (centres unmarked) [Cpd 147, 2-(4'-(dimethylamino)-3-biphenylyl)-N-(4-(2-methyl-4-pyridinyl)phenyl)propanamide]"
5,0.54,Cc1cc(-c2ccc(NC(=O)C(C)c3ccc(N(CC4CC4)CC4CC4)cc3)cc2)ccn1 (centres unmarked) [Cpd 172]
6,0.91,Cc1cc(-c2ccc(NC(=O)C3CC3(F)F)cc2)ccn1 (centres unmarked) [Cpd 185]
7,1.09,Cc1cc(-c2ccc(NC(=O)C3CC3(C)C)cc2)ccn1 (centres unmarked) [Cpd 184]
8,> 10,Cc1cc(-c2ccc(NC(=O)C(CC(C)C)C3CCOCC3)cc2)ccn1 (centres unmarked) [Cpd 173]
9,2.45,"Cc1cc(-c2ccc(NC(=O)Cc3cncc(Br)c3)cc2)ccn1 [Cpd 27, 2-(5-bromo-3-pyridinyl)-N-(4-(2-methyl-4-pyridinyl)phenyl)acetamide]"
10,0.256,"Cc1cc(-c2ccc(NC(=O)[C@H](C)c3cc(C(F)(F)F)cc(C(F)(F)F)c3)cc2)ccn1 [Cpd 1, (2R)-2-(3,5-bis(trifluoromethyl)phenyl)-N-(4-(2-methyl-4-pyridinyl)phenyl)-propanamide]"
11,> 10,CC(=O)N1CCC(C(=O)Nc2ccc(-c3ccnc(C)c3)cc2)CC1 [Cpd 55]
12,> 10,"Cc1cc(-c2ccc(NC(=O)Cc3c(F)cccc3Cl)cc2)ccn1 [Cpd 106, 2-(2-chloro-6-fluorophenyl)-N-(4-(2-methyl-4-pyridinyl)phenyl)acetamide]"
13,1.27,"Cc1cc(-c2ccc(NC(=O)C(C)c3cccc(-c4ccsc4)c3)cc2)ccn1 (centres unmarked) [Cpd 174, N-(4-(2-methyl-4-pyridinyl)phenyl)-2-(3-(3-thiophenyl)phenyl)propanamide]"
14,0.246,"COc1ncc(-c2cccc(C(C)C(=O)Nc3ccc(-c4ccnc(C)c4)cc3)c2)cn1 (centres unmarked) [Cpd 156, 2-(3-(2-methoxy-5-pyrimidinyl)phenyl)-N-(4-(2-methyl-4-pyridinyl)phenyl)-propanamide]"
15,0.191,"Cc1cc(-c2ccc(NC(=O)[C@H](CC(C)C)c3ccc(-c4ccc(N5CCOCC5)cc4)cc3)cc2)ccn1 [Cpd 131, (2R)-4-methyl-N-(4-(2-methyl-4-pyridinyl)-phenyl)-2-(4′-(4-morpholinyl)-4-biphenylyl)pentanamide]"
16,1.42,"Cc1cc(-c2ccc(NC(=O)C(C)c3cccc(-c4ccc(OC(F)(F)F)cc4)c3)cc2)ccn1 (centres unmarked) [Cpd 453, N-(4-(2-methyl-4-pyridinyl)phenyl)-2-(4′-(trifluoromethoxy)-3-biphenylyl)-propanamide]"
17,0.79,"Cc1cc(-c2ccc(NC(=O)Cc3cccc(Cl)c3)cc2)ccn1 [Cpd 8, 2-(3-chlorophenyl)-N-(4-(2-methyl-4-pyridinyl)phenyl)acetamide]"
18,> 10,"Cc1cc(-c2ccc(NC(=O)Cc3ccccn3)cc2)ccn1 [Cpd 88, N-(4-(2-methyl-4-pyridinyl)phenyl)-2-(2-pyridinyl)acetamide]"
19,1.38,COc1ccc(Cl)cc1C(=O)Nc1ccc(-c2ccnc(C)c2)cc1 [Cpd 10]
20,1.02,"Cc1cc(-c2ccc(NC(=O)C(C)n3ccc4ccccc43)cc2)ccn1 (centres unmarked) [Cpd 414, 2-(1H-indol-1-yl)-N-(4-(2-methyl-4-pyridinyl)phenyl)propanamide]"
21,> 10,Cc1cc(-c2ccc(NC(=O)c3cc(Cl)cc(Cl)c3)c(F)c2)ccn1 [Cpd 86]

row,IC50 [µM],Compound
1,0.367,"Cc1cc(-c2ccc(NC(=O)[C@H](CC3CC3)c3cccc(Br)c3)cc2)ccn1 [Cpd 180, (2R)-2-(3-bromophenyl)-3-cyclopropyl-N-(4-(2-methyl-4-pyridinyl)phenyl)-propanamide]"
2,> 10,Cc1cc(-c2ccc(NC(=O)C(C)c3cccc(N4CCN(C)CC4)c3)cc2)ccn1 (centres unmarked) [Cpd 138]
3,5.78,Cc1cc(-c2ccc(NC(=O)Cc3ccc(Oc4ccccc4)cc3)cc2)ccn1 [Cpd 112]
4,1.7,"Cc1cc(-c2ccc(NC(=O)[C@@H](C)c3ccccc3)cc2)ccn1 [Cpd 21, (2S)-N-(4-(2-methyl-4-pyridinyl)phenyl)-2-phenylpropanamide]"
5,0.806,"COc1cc(NC(=O)C(C)c2cc(F)cc(C(F)(F)F)c2)ccc1-c1ccnc(C)c1 (centres unmarked) [Cpd 454, 2-(3-fluoro-5-(trifluoromethyl)phenyl)-N-(3-methoxy-4-(2-methyl-4-pyridinyl)-phenyl)propanamide]"
6,1.97,"Cc1cc(-c2ccc(NC(=O)C(C)c3cccc(Cl)n3)cc2)ccn1 (centres unmarked) [Cpd 24, 2-(6-chloro-2-pyridinyl)-N-(4-(2-methyl-4-pyridinyl)phenyl)propanamide]"
7,> 10,"Cc1cc(-c2ccc(NC(=O)[C@@H](C)c3cc(C(F)(F)F)cc(C(F)(F)F)c3)cc2)ccn1 [Cpd 290, (2S)-2-(3,5-bis(trifluoromethyl)phenyl)-N-(4-(2-methyl-4-pyridinyl)phenyl)-propanamide]"
8,0.911,"COc1cc(NC(=O)[C@H](C)c2cccc(Br)c2)ccc1-c1ccnc(C)c1 [Cpd 461, (2R)-2-(3-bromophenyl)-N-(3-methoxy-4-(2-methyl-4-pyridinyl)phenyl)propanamide]"
9,0.272,"Cc1cc(-c2ccc(NC(=O)Cc3ccc4oc(-c5ccccc5)nc4c3)cc2)ccn1 [Cpd 125, N-(4-(2-methyl-4-pyridinyl)phenyl)-2-(2-phenyl-1,3-benzoxazol-5-yl)acetamide]"
10,> 10,Cc1cc(-c2ccc(NC(=O)c3cccc(C#N)c3)cc2)ccn1 [Cpd 275]
11,0.282,"Cc1cc(-c2ccc(NC(=O)C(CC3CCC3)c3cccc(Br)c3)cc2)ccn1 (centres unmarked) [Cpd 124, 2-(3-bromophenyl)-3-cyclobutyl-N-(4-(2-methyl-4-pyridinyl)phenyl)propanamide]"
12,0.573,Cc1cc(-c2ccc(NC(=O)C3(c4ccc(Cl)cc4)CCC3)cc2)ccn1 [Cpd 310]
13,> 10,Cc1cc(-c2ccc(NC(=O)C3CC(=O)N(C4CCCCC4)C3)cc2)ccn1 (centres unmarked) [Cpd 60]
14,2.59,"Cc1cc(-c2ccc(NC(=O)C(C)c3ccc(NC4CCOCC4)cc3)cc2)ccn1 (centres unmarked) [Cpd 188, N-(4-(2-methyl-4-pyridinyl)phenyl)-2-(4-(tetrahydro-2H-pyran-4-ylamino)phenyl)-propanamide]"
15,> 10,Cc1cc(-c2ccc(NC(=O)C(C)(C)c3cc(C(F)(F)F)cc(C(F)(F)F)c3)cc2)ccn1 [Cpd 336]
16,> 3.33,Cc1cc(-c2ccc(NC(=O)c3ccc(CN4CCOCC4)cc3)cc2)ccn1 [Cpd 625]
17,0.567,COc1ccc(C(=O)Nc2ccc(-c3ccnc(C)c3)cc2)cc1Cl [Cpd 37]
18,> 10,Cc1cc(-c2ccc(NC(=O)C(C)c3cccc(C4CCN(CCO)CC4)c3)cc2)ccn1 (centres unmarked) [Cpd 140]
19,0.328,"Cc1cc(-c2ccc(NC(=O)[C@H](C)c3ccc4c(c3)[nH]c3ccc(Cl)cc34)cc2)ccn1 [Cpd 122, (2R)-2-(6-chloro-9H-carbazol-2-yl)-N-(4-(2-methyl-4-pyridinyl)phenyl)propanamide]"
20,> 10,Cc1cc(-c2ccc(NC(=O)C3CC(=O)N(c4ccccc4)C3)cc2)ccn1 (centres unmarked) [Cpd 53]
